The text below walks through data of ChEMBL document CHEMBL5465560, “Selectivity Literature for EUbOPEN Chemogenomic Library” (2024).

The target in test [1] is Cyclin-dependent kinase 7 (Homo sapiens, UniProt P50613). The test is described as follows: Selectivity interaction (Kinase panel (KiNativ target engagement assay in Jurkat cells)) EUB0001635a CDK7. It is filed as cell-based. The settings on record: Selectivity number of off-targets 0.0, Selectivity number of targets 233.0, Source Knowledge https://www.sciencedirect.com/science/article/pii/S2451945619300674?via%3Dihub, at 1 µM.

Test [2] deals with Mitogen-activated protein kinase 7 (Homo sapiens) (UniProt Q13164). The test is described as follows: Selectivity interaction (KinomeScan (DiscoverX)) EUB0000607a MAPK7. The settings on record: at 10 µM.
Test [3] addresses cAMP-dependent protein kinase catalytic subunit alpha (Homo sapiens, UniProt P17612). As to the kind of experiment: Selectivity interaction (SelectScreen profiling (Invitrogen)) EUB0000607a PRKACA. The settings on record: at 2 µM.
Test [4] addresses Serine/threonine-protein kinase 38-like (Homo sapiens) (UniProt Q9Y2H1). As to the kind of experiment: Selectivity interaction (KinomeScan (DiscoverX)) EUB0000655a STK38L. The settings on record: at 10 µM.
In test [5] the target is Serine/threonine-protein kinase MRCK beta (Homo sapiens) (UniProt Q9Y5S2). The test is described as follows: Selectivity interaction (KinomeScan (DiscoverX)) EUB0001619a CDC42BPB. The settings on record: at 1 µM.
Test [6] concerns the target Mitogen-activated protein kinase kinase kinase kinase 1 (Homo sapiens) (UniProt Q92918). As to the kind of experiment: Selectivity interaction (ActivX KiNativ screen (kinase selectivity in THP-1 cell lysates)) EUB0000639a MAP4K1. As to conditions: lysate, at 0.04 µM. It is filed as subcellular.
The target in test [7] is T1, Serine/threonine-protein kinase D3 (Homo sapiens) (UniProt O94806).
T1 sequence (whole entry): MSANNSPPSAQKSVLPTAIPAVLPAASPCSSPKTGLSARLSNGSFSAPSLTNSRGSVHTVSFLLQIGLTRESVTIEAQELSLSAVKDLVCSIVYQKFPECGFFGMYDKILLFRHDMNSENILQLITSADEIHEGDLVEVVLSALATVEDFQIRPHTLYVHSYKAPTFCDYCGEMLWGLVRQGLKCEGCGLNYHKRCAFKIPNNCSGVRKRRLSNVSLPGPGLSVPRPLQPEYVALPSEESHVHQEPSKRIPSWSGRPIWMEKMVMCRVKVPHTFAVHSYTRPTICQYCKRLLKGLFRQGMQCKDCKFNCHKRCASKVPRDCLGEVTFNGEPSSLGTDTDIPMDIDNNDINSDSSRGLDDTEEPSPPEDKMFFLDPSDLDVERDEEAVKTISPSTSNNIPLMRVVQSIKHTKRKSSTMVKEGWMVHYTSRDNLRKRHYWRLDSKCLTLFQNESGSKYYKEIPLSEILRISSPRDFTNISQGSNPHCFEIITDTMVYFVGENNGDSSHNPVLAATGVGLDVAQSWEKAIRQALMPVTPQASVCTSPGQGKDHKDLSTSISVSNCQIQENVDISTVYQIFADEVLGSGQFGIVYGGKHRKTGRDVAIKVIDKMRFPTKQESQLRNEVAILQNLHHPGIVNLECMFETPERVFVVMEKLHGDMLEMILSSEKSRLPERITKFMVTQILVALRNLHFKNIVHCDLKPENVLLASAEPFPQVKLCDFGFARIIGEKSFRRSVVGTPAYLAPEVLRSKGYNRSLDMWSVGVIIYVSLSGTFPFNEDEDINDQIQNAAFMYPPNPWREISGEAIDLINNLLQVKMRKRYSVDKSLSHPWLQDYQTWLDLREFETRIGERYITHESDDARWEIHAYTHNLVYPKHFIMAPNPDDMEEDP
The test is described as follows: Selectivity interaction (ActivX KiNativ screen (kinase selectivity in THP-1 cell lysates)) EUB0000639a PRKD3. It is filed as subcellular. The settings on record: lysate, at 5 µM.

The target of test [8] is T2, Cyclin-dependent kinase 11A (Homo sapiens) (UniProt Q9UQ88).
T2 sequence (whole entry): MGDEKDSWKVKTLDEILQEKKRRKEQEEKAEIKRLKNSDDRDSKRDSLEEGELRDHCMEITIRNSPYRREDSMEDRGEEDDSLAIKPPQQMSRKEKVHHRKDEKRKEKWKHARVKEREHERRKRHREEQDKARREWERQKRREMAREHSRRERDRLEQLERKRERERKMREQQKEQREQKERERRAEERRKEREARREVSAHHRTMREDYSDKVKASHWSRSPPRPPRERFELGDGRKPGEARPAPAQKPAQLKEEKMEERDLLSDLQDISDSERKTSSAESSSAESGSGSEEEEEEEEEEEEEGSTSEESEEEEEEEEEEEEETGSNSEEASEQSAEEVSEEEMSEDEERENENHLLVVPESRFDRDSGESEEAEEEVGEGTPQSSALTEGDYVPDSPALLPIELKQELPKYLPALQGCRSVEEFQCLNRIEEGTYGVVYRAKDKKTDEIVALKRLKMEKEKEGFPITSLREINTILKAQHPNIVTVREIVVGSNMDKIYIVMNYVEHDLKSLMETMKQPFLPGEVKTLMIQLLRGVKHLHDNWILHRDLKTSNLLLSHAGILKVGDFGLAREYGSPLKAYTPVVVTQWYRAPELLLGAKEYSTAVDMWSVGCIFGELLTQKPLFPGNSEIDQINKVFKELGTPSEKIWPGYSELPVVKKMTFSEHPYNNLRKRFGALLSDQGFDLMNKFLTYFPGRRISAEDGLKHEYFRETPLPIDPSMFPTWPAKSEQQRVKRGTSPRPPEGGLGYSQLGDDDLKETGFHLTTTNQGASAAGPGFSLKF
The test is described as follows: Selectivity interaction (ActivX KiNativ screen (kinase selectivity in THP-1 cell lysates)) EUB0000639a CDK11A. The settings on record: lysate, at 0.2 µM. It is filed as subcellular.

In test [9] the target is Casein kinase I isoform gamma-2 (Homo sapiens) (UniProt P78368). The settings on record: at 10 µM.
In test [10] the target is Tyrosine-protein kinase JAK1 (Homo sapiens, UniProt P23458). The test is described as follows: Selectivity interaction (KinomeScan (DiscoverX)) EUB0001049a JAK1. As to conditions: at 1 µM.
The target in test [11] is AP2-associated protein kinase 1 (Homo sapiens, UniProt Q2M2I8). The test is described as follows: Selectivity interaction (KinomeScan (DiscoverX)) EUB0001049a AAK1. The settings on record: at 1 µM.
In test [12] the test system is Tyrosine-protein kinase ABL1 (Homo sapiens), P00519 [T315I]. As to the kind of experiment: Selectivity interaction (KinomeScan (DiscoverX)) EUB0001049a ABL1. The settings on record: at 1 µM.
Test [13] addresses Serine/threonine-protein kinase MRCK alpha (Homo sapiens) (UniProt Q5VT25). As to the kind of experiment: Selectivity interaction (ProQinase) EUB0000171b CDC42BPA.
Test [14] has as its target Mitogen-activated protein kinase 4 (Homo sapiens) (UniProt P31152). As to the kind of experiment: Selectivity interaction (KinomeScan (DiscoverX)) EUB0000595a MAPK4. The settings on record: at 10 µM.

Sequence of Serine/threonine-protein kinase MRCK alpha (Homo sapiens) (Q5VT25 whole entry): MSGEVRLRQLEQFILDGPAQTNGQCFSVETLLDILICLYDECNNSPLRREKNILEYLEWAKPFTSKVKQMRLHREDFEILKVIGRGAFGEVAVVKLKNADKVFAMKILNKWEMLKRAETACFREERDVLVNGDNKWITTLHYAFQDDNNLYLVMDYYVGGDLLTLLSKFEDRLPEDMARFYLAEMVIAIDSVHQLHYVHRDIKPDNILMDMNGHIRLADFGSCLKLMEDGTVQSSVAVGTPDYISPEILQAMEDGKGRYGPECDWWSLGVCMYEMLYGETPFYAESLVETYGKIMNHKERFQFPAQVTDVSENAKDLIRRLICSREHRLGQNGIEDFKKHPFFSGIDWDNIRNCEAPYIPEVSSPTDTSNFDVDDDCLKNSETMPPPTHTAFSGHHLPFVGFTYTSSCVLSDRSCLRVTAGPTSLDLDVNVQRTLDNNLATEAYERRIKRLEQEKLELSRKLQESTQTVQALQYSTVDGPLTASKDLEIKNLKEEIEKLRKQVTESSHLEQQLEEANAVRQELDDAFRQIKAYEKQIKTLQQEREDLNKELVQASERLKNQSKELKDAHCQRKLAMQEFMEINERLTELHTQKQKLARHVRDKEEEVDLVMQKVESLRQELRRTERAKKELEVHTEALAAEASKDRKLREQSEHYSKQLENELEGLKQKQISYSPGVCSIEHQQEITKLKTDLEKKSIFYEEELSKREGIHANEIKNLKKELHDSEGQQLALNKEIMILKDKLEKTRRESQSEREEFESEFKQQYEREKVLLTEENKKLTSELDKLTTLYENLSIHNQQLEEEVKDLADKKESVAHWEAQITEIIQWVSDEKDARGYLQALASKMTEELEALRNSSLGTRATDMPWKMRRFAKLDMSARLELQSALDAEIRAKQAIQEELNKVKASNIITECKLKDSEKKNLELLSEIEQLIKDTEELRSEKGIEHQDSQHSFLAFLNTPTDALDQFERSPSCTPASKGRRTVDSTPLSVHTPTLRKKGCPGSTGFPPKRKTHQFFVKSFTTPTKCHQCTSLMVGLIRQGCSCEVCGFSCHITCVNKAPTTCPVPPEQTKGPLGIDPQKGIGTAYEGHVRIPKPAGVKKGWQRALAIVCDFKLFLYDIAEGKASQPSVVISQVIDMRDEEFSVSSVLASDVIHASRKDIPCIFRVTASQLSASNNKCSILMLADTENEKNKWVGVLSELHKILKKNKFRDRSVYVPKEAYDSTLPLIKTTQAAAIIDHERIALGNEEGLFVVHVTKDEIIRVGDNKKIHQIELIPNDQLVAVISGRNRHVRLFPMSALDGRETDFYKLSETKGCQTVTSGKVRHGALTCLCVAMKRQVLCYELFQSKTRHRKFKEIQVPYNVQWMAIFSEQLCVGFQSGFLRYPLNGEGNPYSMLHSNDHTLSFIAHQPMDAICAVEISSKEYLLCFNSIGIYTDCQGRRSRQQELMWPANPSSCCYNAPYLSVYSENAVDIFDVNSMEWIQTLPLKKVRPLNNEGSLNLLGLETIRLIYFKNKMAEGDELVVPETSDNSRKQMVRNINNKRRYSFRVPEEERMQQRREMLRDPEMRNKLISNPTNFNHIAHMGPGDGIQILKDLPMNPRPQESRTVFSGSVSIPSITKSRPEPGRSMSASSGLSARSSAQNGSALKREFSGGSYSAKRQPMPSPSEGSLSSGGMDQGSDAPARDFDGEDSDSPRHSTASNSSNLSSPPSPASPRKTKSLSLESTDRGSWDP
Sequence of Cyclin-dependent kinase 7 (P50613 whole entry): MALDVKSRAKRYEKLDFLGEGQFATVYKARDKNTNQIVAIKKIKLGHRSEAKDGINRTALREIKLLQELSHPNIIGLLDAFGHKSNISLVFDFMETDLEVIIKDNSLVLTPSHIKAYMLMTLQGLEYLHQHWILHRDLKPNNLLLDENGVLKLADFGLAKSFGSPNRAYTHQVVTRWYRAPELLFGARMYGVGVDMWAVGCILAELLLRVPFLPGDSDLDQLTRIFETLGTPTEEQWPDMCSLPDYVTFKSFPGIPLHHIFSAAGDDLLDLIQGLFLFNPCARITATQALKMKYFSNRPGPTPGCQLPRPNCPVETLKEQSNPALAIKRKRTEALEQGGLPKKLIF
Sequence of Tyrosine-protein kinase JAK1 (P23458 whole entry): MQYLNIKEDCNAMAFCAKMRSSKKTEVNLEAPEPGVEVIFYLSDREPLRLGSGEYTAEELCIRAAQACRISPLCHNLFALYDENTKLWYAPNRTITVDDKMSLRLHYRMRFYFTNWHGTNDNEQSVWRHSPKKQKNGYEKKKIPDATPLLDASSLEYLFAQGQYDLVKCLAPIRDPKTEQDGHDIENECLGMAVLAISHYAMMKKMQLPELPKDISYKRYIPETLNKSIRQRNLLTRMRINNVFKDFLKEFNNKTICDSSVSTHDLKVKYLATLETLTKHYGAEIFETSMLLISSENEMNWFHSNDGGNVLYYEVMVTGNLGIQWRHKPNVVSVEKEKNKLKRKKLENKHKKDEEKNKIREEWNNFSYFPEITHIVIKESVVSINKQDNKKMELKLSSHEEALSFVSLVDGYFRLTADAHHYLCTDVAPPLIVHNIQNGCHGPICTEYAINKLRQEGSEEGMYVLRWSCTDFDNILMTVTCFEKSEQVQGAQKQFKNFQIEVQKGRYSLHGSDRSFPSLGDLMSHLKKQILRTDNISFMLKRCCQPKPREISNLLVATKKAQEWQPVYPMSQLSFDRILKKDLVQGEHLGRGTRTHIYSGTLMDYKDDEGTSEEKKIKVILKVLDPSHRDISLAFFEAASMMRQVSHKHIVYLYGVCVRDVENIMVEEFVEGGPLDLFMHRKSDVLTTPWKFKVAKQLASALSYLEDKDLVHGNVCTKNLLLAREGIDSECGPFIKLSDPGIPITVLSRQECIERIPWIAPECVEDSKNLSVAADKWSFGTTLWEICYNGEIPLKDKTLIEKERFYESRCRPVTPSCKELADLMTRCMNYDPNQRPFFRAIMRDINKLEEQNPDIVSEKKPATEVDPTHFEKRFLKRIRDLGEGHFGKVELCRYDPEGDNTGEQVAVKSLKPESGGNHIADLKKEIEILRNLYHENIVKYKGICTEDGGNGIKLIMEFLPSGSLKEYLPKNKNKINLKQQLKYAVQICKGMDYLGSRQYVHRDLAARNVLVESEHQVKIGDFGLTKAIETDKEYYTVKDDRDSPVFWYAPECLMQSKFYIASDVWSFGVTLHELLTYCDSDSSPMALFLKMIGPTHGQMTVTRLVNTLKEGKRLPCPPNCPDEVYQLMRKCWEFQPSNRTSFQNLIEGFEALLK
Sequence of Mitogen-activated protein kinase kinase kinase kinase 1 (Homo sapiens) (Q92918 whole entry, looked up): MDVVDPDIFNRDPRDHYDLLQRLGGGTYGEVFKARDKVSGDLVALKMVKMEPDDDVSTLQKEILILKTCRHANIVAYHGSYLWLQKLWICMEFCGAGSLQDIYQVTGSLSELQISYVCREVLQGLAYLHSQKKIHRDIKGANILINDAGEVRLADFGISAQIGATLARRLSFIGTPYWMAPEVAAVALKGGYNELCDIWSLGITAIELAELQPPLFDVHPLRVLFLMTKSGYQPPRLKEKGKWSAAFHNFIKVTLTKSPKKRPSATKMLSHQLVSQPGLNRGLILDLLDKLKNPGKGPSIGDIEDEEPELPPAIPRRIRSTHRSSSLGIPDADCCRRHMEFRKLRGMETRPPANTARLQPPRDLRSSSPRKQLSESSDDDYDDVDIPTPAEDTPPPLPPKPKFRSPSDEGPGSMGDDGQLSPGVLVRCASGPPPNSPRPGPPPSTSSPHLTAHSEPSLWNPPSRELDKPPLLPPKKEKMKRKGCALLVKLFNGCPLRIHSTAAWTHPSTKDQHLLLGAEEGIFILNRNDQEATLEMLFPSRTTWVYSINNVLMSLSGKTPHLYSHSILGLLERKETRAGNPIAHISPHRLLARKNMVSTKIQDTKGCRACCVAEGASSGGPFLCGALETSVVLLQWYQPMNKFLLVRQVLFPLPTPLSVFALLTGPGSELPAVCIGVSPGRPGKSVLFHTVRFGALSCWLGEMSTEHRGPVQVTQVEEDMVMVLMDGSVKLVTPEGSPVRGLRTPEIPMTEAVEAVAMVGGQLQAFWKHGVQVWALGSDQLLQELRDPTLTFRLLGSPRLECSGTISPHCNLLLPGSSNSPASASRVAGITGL
Sequence of Mitogen-activated protein kinase 4 (Homo sapiens) (P31152 whole entry): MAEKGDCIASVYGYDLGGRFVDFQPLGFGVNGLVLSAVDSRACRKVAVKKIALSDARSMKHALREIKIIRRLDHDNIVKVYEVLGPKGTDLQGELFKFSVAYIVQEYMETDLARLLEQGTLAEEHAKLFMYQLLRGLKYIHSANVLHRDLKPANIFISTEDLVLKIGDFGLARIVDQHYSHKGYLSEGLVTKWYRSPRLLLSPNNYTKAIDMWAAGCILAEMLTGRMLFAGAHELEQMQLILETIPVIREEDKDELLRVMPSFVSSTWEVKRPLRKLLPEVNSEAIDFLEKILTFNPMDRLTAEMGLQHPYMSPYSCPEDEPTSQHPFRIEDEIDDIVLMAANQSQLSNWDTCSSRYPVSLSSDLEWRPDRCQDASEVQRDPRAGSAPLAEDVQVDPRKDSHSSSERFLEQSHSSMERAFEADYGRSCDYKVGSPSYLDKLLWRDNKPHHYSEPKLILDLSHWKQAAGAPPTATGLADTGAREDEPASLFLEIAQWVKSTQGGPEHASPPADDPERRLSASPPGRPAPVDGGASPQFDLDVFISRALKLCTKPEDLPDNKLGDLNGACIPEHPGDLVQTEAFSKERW
Sequence of Casein kinase I isoform gamma-2 (Homo sapiens) (P78368 whole entry, looked up, canonical isoform): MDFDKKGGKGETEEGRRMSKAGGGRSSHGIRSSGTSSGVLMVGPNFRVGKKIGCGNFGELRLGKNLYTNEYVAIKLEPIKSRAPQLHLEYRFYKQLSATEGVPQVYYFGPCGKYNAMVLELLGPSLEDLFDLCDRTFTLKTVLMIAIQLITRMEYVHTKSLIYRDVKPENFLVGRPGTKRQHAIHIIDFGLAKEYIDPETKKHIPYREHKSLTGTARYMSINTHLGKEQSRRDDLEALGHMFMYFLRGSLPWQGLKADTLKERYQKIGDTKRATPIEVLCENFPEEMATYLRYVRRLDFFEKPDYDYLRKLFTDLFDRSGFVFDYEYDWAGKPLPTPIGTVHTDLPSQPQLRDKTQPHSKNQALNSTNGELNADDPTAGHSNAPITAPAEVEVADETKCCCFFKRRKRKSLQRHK

`C=CC(=O)Nc1ccc(C(=O)Nc2[nH]nc3c2CN(C(=O)N[C@H](CN(C)C)c2ccccc2)C3(C)C)cc1` yielded a % of engagement in [1] of 95.5%.

For the molecule `CNC(=O)Nc1ccc(-c2nc(N3CC4CCC(C3)O4)c3cnn(C4CCC5(CC4)OCCO5)c3n2)cc1`, the % of control in test [2] is 100%. For the same molecule, the % of inhibition in test [3] is -3%.

Consider `CN(C)CCOc1ccc(-c2nc(-c3ccncc3)c(-c3ccc4c(c3)CC/C4=N\O)[nH]2)cc1`, for which the % of control in test [4] stood at 100%.

In the case of `N#Cc1cccc(-c2c[nH]c3ncnc(N4CCOCC4)c23)c1`, the % of control in test [5] is 83%.

In the case of `CC[C@@H]1[C@H](F)C(=O)N[C@@H]1COc1nccc2cc(C(N)=O)c(OC)cc12` [ZIMLOVISERTIB], the figures for the % of inhibition in test [6], in [7] and in test [8] were -4.8%, -5.2% and 7.2%, respectively.

`CCN(CC)CCCCNc1ncc2cc(-c3cc(OC)cc(OC)c3)c(NC(=O)NC(C)(C)C)nc2n1` displayed a % of control in [9] of 100%.

As to `COc1cc(Nc2nc(C)cc(-c3cnn4nc(OC)ccc34)n2)cc(C(F)(F)F)c1`, the % of control in test [10] is 100%; in test [11], 96%; in [12], 100%.

Turning to `C=CC(=O)Nc1cccc(C(=O)Nc2ccc(Nc3cc(-c4[nH]c(SC)nc4C)ccn3)cc2)c1`, the values for the % of control in test [13] (at 1 µM) and in test [13] (at 5 µM) were 102% and 91%, respectively.

For the molecule `COCC(=O)NC/C=C/c1ccc2ncnc(Nc3ccc(Oc4ccc(C)nc4)c(C)c3)c2c1` [CP-724714], in [14], the % of control came out at 100%.
